The experiment relates to A2780 (human ovarian cancer). As to the kind of experiment: Antiproliferative activity against drug-sensitive human A2780 cells.

In turn, `CC(C)=CCc1c(O)cc(/C=C/c2cc(O)c3c(c2)C[C@@H]2C(C)(C)[C@H](O)[C@H](O)C[C@@]2(C)O3)cc1O` [VEDELIANIN] registered an IC50 of 130 nM.

One may read the IC50 as the concentration at which inhibition is half-maximal.

(Values after ChEMBL document CHEMBL1142962, “Antiproliferative prenylated stilbenes and flavonoids from Macaranga alnifolia from the Madagascar rainforest” (J Nat Prod, 2007).)
